Measured values reported in US20260207623A1, “USE OF ESTETROL IN HEPATICALLY IMPAIRED PATIENTS” (ESTETRA SRL, priority 2022, published 2026).

Assay: Phase 1 pharmacokinetic study of a single oral dose of 20 mg E4 monohydrate in female subjects with normal hepatic function and mild, moderate or severe hepatic impairment (plasma, LC-MS/MS, non-compartmental analysis)
Type: in vivo, human
Details: for AUC0-24 h, GM / AUC0-24 h, Mean / AUC0-24 h, Median / AUCinf, GM / AUCinf, Mean / AUCinf, Median / AUClast, GM / AUClast, Mean / AUClast, Median / Cmax, GM / Cmax, Mean / Cmax, Median / T1/2, GM / T1/2, Mean / T1/2, Median / Tmax, Median / λz, GM / λz, Mean / λz, Median: single oral dose 20 mg E4 monohydrate, plasma
Method: This was a Phase 1, multi-centre, open-label, PK, and safety study of a single oral dose of 20 mg E4 monohydrate in female subjects with normal hepatic function (Group 1), mild hepatic impairment (Group 2), moderate hepatic impairment (Group 3), and severe hepatic impairment (Group 4), as defined using the Child-Pugh classification at Screening.
The study consisted of an eligibility Screening period (within 28 days prior to study drug administration), an Assessment Period with in-house period and outpatient visits (including a single oral dose of 20 mg E4 on Day 1), and a follow up visit. All subjects were confined to the study site from Day-1 (the day before dosing) until Day 4 and returned to the site every day from Day 5 to Day 9. Alternatively, the subjects could stay for a prolonged in-house period in agreement with the Investigator. The follow-up visit occurred on Day 14 (+2 days).
All subjects arrived at the study site in the morning of Day-1 in a fasted state (no food for at least 8 h, water was allowed) to have the scheduled assessments performed in order to confirm eligibility as outlined in the inclusion and exclusion criteria (Section 2.3.1 and Section 2.3.2, respectively). In the morning of Day 1 following an overnight fast, the subjects received oral dosing of 20 mg E4 monohydrate and remained at the site. Study-related assessments were performed at time points indicated in the Schedule of Assessments in Table 2.
Serial blood sampling for PK assessments started on Day 1 and proceeded until Day 9 according to the Pharmacokinetic Sampling Schedule presented in Table 3.
Each enrolled subject was to receive a single oral dose of 20 mg of E4 (estetrol) as monohydrate as a film-coated tablet.
Study drug was administered to subjects in the morning after an overnight fast of at least 8 h.
Calculation of non-compartmental PK parameters were done using WinNonlin™ Professional, Version 6.3 or higher.
The primary PK parameters to be analyzed for E4 in plasma: • Cmax=maximum observed plasma concentration • AUCinf=area under the concentration-time curve (AUC) from time zero extrapolated to infinity
The analysis of E4 and the metabolites E4-3-glucuronide and E4-16-glucuronide in plasma samples were performed at the Bioanalytical Laboratory of the CRO using a validated liquid chromatography-mass spectrometry/mass spectrometry method.
Individual and mean plasma concentrations at each sampling time point for E4 are presented by listings and descriptive summary statistics including means, geometric means (GMs), medians, ranges, standard deviations (SD) and coefficients of variation (CV). Individual, mean and/or median concentrations per hepatic function group were plotted versus time on semilogarithmic scales.
PK parameters were calculated by non-compartmental analysis. PK parameters were analysed using descriptive statistics and are presented by hepatic function group.
Analysis of variance (ANOVA) were used to compare primary PK parameters of E4 (Cmax and AUCinf) between subjects with hepatic impairment and subjects with normal hepatic function in an exploratory approach, using the log-transformed value of each PK parameter as dependent variable, and the hepatic impairment group (normal, mild, moderate, and severe) as a fixed classification factor. Geometric least squares means were used to calculate the ratios of primary PK parameters for each hepatic impairment group to those in the control group, along with 90% confidence intervals (CIs).
Additionally, the impact of age and BMI on the effect of hepatic impairment were evaluated using an ANOVA model similar as the ANOVA model described above, but with the interaction between each factor and the hepatic impairment group included as an additional factor.
The relationship between log-transformed PK parameters (Cmax and AUCinf) and continuous parameters (albumin, total bilirubin, and prothrombin time) used for the Child-Pugh score was explored by a linear regression approach. […]

In the case of `CC12CCC3c4ccc(O)cc4CCC3C1C(O)C(OC1OC(C(=O)O)C(O)C(O)C1O)C2O` (stereo not shown) [E4-16-glucuronide], the “AUC0-24 h, GM” value (Mild hepatic impairment) is reported as 1017.08 ng·h/mL, the “AUC0-24 h, Mean” value (Mild hepatic impairment) is reported as 1038.91 ng·h/mL and the “AUC0-24 h, Median” value (Mild hepatic impairment) is reported as 1061.93 ng·h/mL. For the same compound, the “AUCinf, GM” value (Mild hepatic impairment) was 1380.13 ng·h/mL, the “AUCinf, Mean” value (Mild hepatic impairment) was 1389.24 ng·h/mL and the “AUCinf, Median” value (Mild hepatic impairment) was 1358.39 ng·h/mL. For the same compound, the “AUClast, GM” value (Mild hepatic impairment) was 1350.15 ng·h/mL, the “AUClast, Mean” value (Mild hepatic impairment) was 1364.27 ng·h/mL and the “AUClast, Median” value (Mild hepatic impairment) was 1329.47 ng·h/mL. The “Cmax, GM” value (Mild hepatic impairment) was 711.100 ng/mL, the “Cmax, Mean” value (Mild hepatic impairment) was 745.750 ng/mL and the “Cmax, Median” value (Mild hepatic impairment) was 712.500 ng/mL. The “T1/2, GM” value (Mild hepatic impairment) was 24.080 h, the “T1/2, Mean” value (Mild hepatic impairment) was 24.634 h and the “T1/2, Median” value (Mild hepatic impairment) was 25.699 h. For the same compound, the “Tmax, Median” value (Mild hepatic impairment) was 0.490 h, the “λz, GM” value (Mild hepatic impairment) was 0.0300 h⁻¹ and the “λz, Mean” value (Mild hepatic impairment) was 0.0295 h⁻¹. For the same compound, the “λz, Median” value (Mild hepatic impairment) was 0.0270 h⁻¹, the “AUC0-24 h, GM” value (Moderate hepatic impairment) was 1244.09 ng·h/mL and the “AUC0-24 h, Mean” value (Moderate hepatic impairment) was 1293.40 ng·h/mL. The “AUC0-24 h, Median” value (Moderate hepatic impairment) was 1323.09 ng·h/mL, the “AUCinf, GM” value (Moderate hepatic impairment) was 1459.97 ng·h/mL and the “AUCinf, Mean” value (Moderate hepatic impairment) was 1518.70 ng·h/mL. For the same compound, the “AUCinf, Median” value (Moderate hepatic impairment) was 1534.85 ng·h/mL, the “AUClast, GM” value (Moderate hepatic impairment) was 1375.56 ng·h/mL and the “AUClast, Mean” value (Moderate hepatic impairment) was 1435.97 ng·h/mL. The “AUClast, Median” value (Moderate hepatic impairment) was 1459.15 ng·h/mL, the “Cmax, GM” value (Moderate hepatic impairment) was 734.210 ng/mL and the “Cmax, Mean” value (Moderate hepatic impairment) was 785.625 ng/mL. The “Cmax, Median” value (Moderate hepatic impairment) was 759.500 ng/mL, the “T1/2, GM” value (Moderate hepatic impairment) was 13.050 h and the “T1/2, Mean” value (Moderate hepatic impairment) was 14.217 h. The “T1/2, Median” value (Moderate hepatic impairment) was 12.381 h, the “Tmax, Median” value (Moderate hepatic impairment) was 0.985 h and the “λz, GM” value (Moderate hepatic impairment) was 0.0500 h⁻¹. The “λz, Mean” value (Moderate hepatic impairment) was 0.0580 h⁻¹, the “λz, Median” value (Moderate hepatic impairment) was 0.0560 h⁻¹ and the “AUC0-24 h, GM” value (Normal hepatic function) was 643.44 ng·h/mL. The “AUC0-24 h, Mean” value (Normal hepatic function) was 676.36 ng·h/mL, the “AUC0-24 h, Median” value (Normal hepatic function) was 613.15 ng·h/mL and the “AUCinf, GM” value (Normal hepatic function) was 896.29 ng·h/mL. The “AUCinf, Mean” value (Normal hepatic function) was 946.46 ng·h/mL, the “AUCinf, Median” value (Normal hepatic function) was 932.27 ng·h/mL and the “AUClast, GM” value (Normal hepatic function) was 867.85 ng·h/mL. For the same compound, the “AUClast, Mean” value (Normal hepatic function) was 919.86 ng·h/mL, the “AUClast, Median” value (Normal hepatic function) was 894.59 ng·h/mL and the “Cmax, GM” value (Normal hepatic function) was 353.110 ng/mL. For the same compound, the “Cmax, Mean” value (Normal hepatic function) was 419.750 ng/mL, the “Cmax, Median” value (Normal hepatic function) was 513.000 ng/mL and the “T1/2, GM” value (Normal hepatic function) was 18.220 h. For the same compound, the “T1/2, Mean” value (Normal hepatic function) was 19.245 h, the “T1/2, Median” value (Normal hepatic function) was 17.755 h and the “Tmax, Median” value (Normal hepatic function) was 0.500 h. The “λz, GM” value (Normal hepatic function) was 0.0400 h⁻¹, the “λz, Mean” value (Normal hepatic function) was 0.0402 h⁻¹ and the “λz, Median” value (Normal hepatic function) was 0.0391 h⁻¹. For the same compound, the “AUC0-24 h, GM” value (Severe hepatic impairment) was 1977.74 ng·h/mL, the “AUC0-24 h, Mean” value (Severe hepatic impairment) was 2295.22 ng·h/mL and the “AUC0-24 h, Median” value (Severe hepatic impairment) was 1922.86 ng·h/mL. For the same compound, the “AUCinf, GM” value (Severe hepatic impairment) was 2081.97 ng·h/mL, the “AUCinf, Mean” value (Severe hepatic impairment) was 2467.86 ng·h/mL and the “AUCinf, Median” value (Severe hepatic impairment) was 1959.93 ng·h/mL. The “AUClast, GM” value (Severe hepatic impairment) was 2057.13 ng·h/mL, the “AUClast, Mean” value (Severe hepatic impairment) was 2443.30 ng·h/mL and the “AUClast, Median” value (Severe hepatic impairment) was 1951.71 ng·h/mL. The “Cmax, GM” value (Severe hepatic impairment) was 901.010 ng/mL, the “Cmax, Mean” value (Severe hepatic impairment) was 952.625 ng/mL and the “Cmax, Median” value (Severe hepatic impairment) was 894.000 ng/mL. For the same compound, the “T1/2, GM” value (Severe hepatic impairment) was 8.450 h, the “T1/2, Mean” value (Severe hepatic impairment) was 10.103 h and the “T1/2, Median” value (Severe hepatic impairment) was 8.542 h. The “Tmax, Median” value (Severe hepatic impairment) was 0.500 h, the “λz, GM” value (Severe hepatic impairment) was 0.0800 h⁻¹ and the “λz, Mean” value (Severe hepatic impairment) was 0.0995 h⁻¹. The “λz, Median” value (Severe hepatic impairment) was 0.0882 h⁻¹, the “time to primary peak of GM plasma concentrations” value (all groups) was ≤ 1 h and the “time post dose until which concentrations remained above LLOQ in at least half of the subjects” value (mild hepatic impairment) was 96 h. The “time post dose until which concentrations remained above LLOQ in at least half of the subjects” value (moderate hepatic impairment) was 72 h, the “time post dose until which concentrations remained above LLOQ in at least half of the subjects” value (normal hepatic function) was 96 h and the “time post dose until which concentrations remained above LLOQ in at least half of the subjects” value (severe hepatic impairment) was 48 h. For the same compound, the “Maximum value of AUC0-24 h, severe hepatic impairment compared with control group” value (severe vs control group) was ~ 5 fold, the “Maximum value of AUCinf, severe hepatic impairment compared with control group” value (severe vs control group) was ~ 4 fold and the “Maximum value of AUClast, severe hepatic impairment compared with control group” value (severe vs control group) was ~ 4 fold. For the same compound, the “Maximum value of Cmax, severe hepatic impairment compared with control group” value (severe vs control group) was ~ 2 fold.
